# Assay results published in ChEMBL document CHEMBL3885861, “Open TG-GATES”.
# Organism: Rattus norvegicus
# Assay: Open TG-GATES - Regimen: Daily Repeat
# Format: toxicity, organism-based, Sprague-Dawley
# Parameters: regimen Daily Repeat, gender Male, age 6 weeks
# Conditions: in vivo, po, 60 mg/kg, route gavage, dose level Middle; for APTT / Bas / Eos / Fbg / Hb / Ht / Lym / MCH / MCHC / MCV / Mono / Neu / PT / Plat / RBC / Ret / WBC: tissue Blood; for KIDNEY_L / KIDNEY_R / KIDNEY_TOTAL: tissue Kidney; for LIVER: tissue Liver; for A/G / ALP / ALT / AST / BUN / CRE / Ca / Cl / DBIL / GLC / IP / K / LDH / Na / PL / RALB / TBIL / TC / TG / TP / gamma-GTP: tissue Plasma
compound,measurement,setting,value
CC(CN1c2ccccc2Sc2ccccc21)N(C)C (configuration not stated) [PROMETHAZINE],TERMINAL_BW,"72 h, time 3 day",228.9 g
same,APTT,"72 h, time 3 day",22.4 s
same,Bas,"72 h, time 3 day",0%
same,Eos,"72 h, time 3 day",0.8%
same,Fbg,"72 h, time 3 day",300.8 mg/dL
same,Hb,"72 h, time 3 day",13.3 g/dL
same,Ht,"72 h, time 3 day",40.1%
same,Lym,"72 h, time 3 day",78.8%
same,MCH,"72 h, time 3 day",20.8 pg
same,MCHC,"72 h, time 3 day",33.1%
same,MCV,"72 h, time 3 day",62.8 fL
same,Mono,"72 h, time 3 day",2.4%
same,Neu,"72 h, time 3 day",17%
same,PT,"72 h, time 3 day",16.1 s
same,Plat,"72 h, time 3 day",121.6 x10_4/uL
same,RBC,"72 h, time 3 day",639.4 x10_4/ul
same,Ret,"72 h, time 3 day",6.1%
same,WBC,"72 h, time 3 day",113.7 x10_2/uL
same,KIDNEY_L,"72 h, time 3 day",1 g
same,KIDNEY_R,"72 h, time 3 day",1 g
same,KIDNEY_TOTAL,"72 h, time 3 day",2 g
same,LIVER,"72 h, time 3 day",11.7 g
same,A/G,"72 h, time 3 day",1.3
same,ALP,"72 h, time 3 day",1638.6 IU/L
same,ALT,"72 h, time 3 day",45.8 IU/L
same,AST,"72 h, time 3 day",74.6 IU/L
same,BUN,"72 h, time 3 day",16.8 mg/dL
same,CRE,"72 h, time 3 day",0.2 mg/dL
same,Ca,"72 h, time 3 day",10.9 mg/dL
same,Cl,"72 h, time 3 day",106.6 meq/L
same,DBIL,"72 h, time 3 day",0.002 mg/dL
same,GLC,"72 h, time 3 day",184.8 mg/dL
same,IP,"72 h, time 3 day",7 mg/dL
same,K,"72 h, time 3 day",4.3 meq/L
same,LDH,"72 h, time 3 day",158.2 IU/L
same,Na,"72 h, time 3 day",142 meq/L
same,PL,"72 h, time 3 day",140.8 mg/dL
same,RALB,"72 h, time 3 day",3.1 g/dL
same,TBIL,"72 h, time 3 day",0.008 mg/dL
same,TC,"72 h, time 3 day",73.2 mg/dL
same,TG,"72 h, time 3 day",122.8 mg/dL
same,TP,"72 h, time 3 day",5.5 g/dL
same,gamma-GTP,"72 h, time 3 day",1.4 IU/L
same,TERMINAL_BW,"[…], time 7 day",255.8 g
same,TERMINAL_BW,"[…], time 14 day",294.2 g
same,TERMINAL_BW,"[…], time 28 day",366.5 g
same,APTT,"[…], time 7 day",23.8 s
same,Bas,"[…], time 7 day",0%
same,Eos,"[…], time 7 day",0.8%
same,Fbg,"[…], time 7 day",293.6 mg/dL
same,Hb,"[…], time 7 day",13.6 g/dL
same,Ht,"[…], time 7 day",41.2%
same,Lym,"[…], time 7 day",80.4%
same,MCH,"[…], time 7 day",20.2 pg
same,MCHC,"[…], time 7 day",33.1%
same,MCV,"[…], time 7 day",61.1 fL
same,Mono,"[…], time 7 day",2.8%
same,Neu,"[…], time 7 day",15.2%
same,PT,"[…], time 7 day",15.8 s
same,Plat,"[…], time 7 day",107.7 x10_4/uL
same,RBC,"[…], time 7 day",674.2 x10_4/ul
same,Ret,"[…], time 7 day",5.1%
same,WBC,"[…], time 7 day",158 x10_2/uL
same,APTT,"[…], time 14 day",25 s
same,Bas,"[…], time 14 day",0%
same,Eos,"[…], time 14 day",1%
same,Fbg,"[…], time 14 day",312.6 mg/dL
same,Hb,"[…], time 14 day",14.2 g/dL
same,Ht,"[…], time 14 day",41.7%
same,Lym,"[…], time 14 day",77.8%
same,MCH,"[…], time 14 day",20.1 pg
same,MCHC,"[…], time 14 day",34%
same,MCV,"[…], time 14 day",59.1 fL
same,Mono,"[…], time 14 day",2%
same,Neu,"[…], time 14 day",18.4%
same,PT,"[…], time 14 day",15.6 s
same,Plat,"[…], time 14 day",111.3 x10_4/uL
same,RBC,"[…], time 14 day",706.4 x10_4/ul
same,Ret,"[…], time 14 day",4.8%
same,WBC,"[…], time 14 day",120.7 x10_2/uL
same,APTT,"[…], time 28 day",25.7 s
same,Bas,"[…], time 28 day",0%
same,Eos,"[…], time 28 day",1%
same,Fbg,"[…], time 28 day",303.6 mg/dL
same,Hb,"[…], time 28 day",15.3 g/dL
same,Ht,"[…], time 28 day",43.8%
same,Lym,"[…], time 28 day",79.2%
same,MCH,"[…], time 28 day",19.6 pg
same,MCHC,"[…], time 28 day",34.9%
same,MCV,"[…], time 28 day",56.4 fL
same,Mono,"[…], time 28 day",1.8%
same,Neu,"[…], time 28 day",17.2%
same,PT,"[…], time 28 day",16.3 s
same,Plat,"[…], time 28 day",96 x10_4/uL
same,RBC,"[…], time 28 day",778.4 x10_4/ul
same,Ret,"[…], time 28 day",2.9%
same,WBC,"[…], time 28 day",96 x10_2/uL
same,KIDNEY_L,"[…], time 7 day",1.1 g
same,KIDNEY_R,"[…], time 7 day",1.1 g
same,KIDNEY_TOTAL,"[…], time 7 day",2.2 g
same,KIDNEY_L,"[…], time 14 day",1.2 g
same,KIDNEY_R,"[…], time 14 day",1.2 g
same,KIDNEY_TOTAL,"[…], time 14 day",2.4 g
same,KIDNEY_L,"[…], time 28 day",1.4 g
same,KIDNEY_R,"[…], time 28 day",1.4 g
same,KIDNEY_TOTAL,"[…], time 28 day",2.8 g
same,LIVER,"[…], time 7 day",13.5 g
same,LIVER,"[…], time 14 day",14.9 g
same,LIVER,"[…], time 28 day",17.3 g
same,A/G,"[…], time 7 day",1.2
same,ALP,"[…], time 7 day",1458.6 IU/L
same,ALT,"[…], time 7 day",44 IU/L
same,AST,"[…], time 7 day",71 IU/L
same,BUN,"[…], time 7 day",20.6 mg/dL
same,CRE,"[…], time 7 day",0.2 mg/dL
same,Ca,"[…], time 7 day",10.7 mg/dL
same,Cl,"[…], time 7 day",106.2 meq/L
same,DBIL,"[…], time 7 day",0 mg/dL
same,GLC,"[…], time 7 day",181.2 mg/dL
same,IP,"[…], time 7 day",7 mg/dL
same,K,"[…], time 7 day",4.4 meq/L
same,LDH,"[…], time 7 day",143.4 IU/L
same,Na,"[…], time 7 day",141.8 meq/L
same,PL,"[…], time 7 day",144.4 mg/dL
same,RALB,"[…], time 7 day",3 g/dL
same,TBIL,"[…], time 7 day",0.006 mg/dL
same,TC,"[…], time 7 day",75.4 mg/dL
same,TG,"[…], time 7 day",106.2 mg/dL
same,TP,"[…], time 7 day",5.6 g/dL
same,gamma-GTP,"[…], time 7 day",2.2 IU/L
same,A/G,"[…], time 14 day",1.2
same,ALP,"[…], time 14 day",1448 IU/L
same,ALT,"[…], time 14 day",46.6 IU/L
same,AST,"[…], time 14 day",72.2 IU/L
same,BUN,"[…], time 14 day",19 mg/dL
same,CRE,"[…], time 14 day",0.2 mg/dL
same,Ca,"[…], time 14 day",10.9 mg/dL
same,Cl,"[…], time 14 day",106 meq/L
same,DBIL,"[…], time 14 day",0 mg/dL
same,GLC,"[…], time 14 day",182.2 mg/dL
same,IP,"[…], time 14 day",6.9 mg/dL
same,K,"[…], time 14 day",4.1 meq/L
same,LDH,"[…], time 14 day",128.4 IU/L
same,Na,"[…], time 14 day",142.4 meq/L
same,PL,"[…], time 14 day",150.4 mg/dL
same,RALB,"[…], time 14 day",3.2 g/dL
same,TBIL,"[…], time 14 day",0.012 mg/dL
same,TC,"[…], time 14 day",76 mg/dL
same,TG,"[…], time 14 day",128.4 mg/dL
same,TP,"[…], time 14 day",5.9 g/dL
same,gamma-GTP,"[…], time 14 day",2.4 IU/L
same,A/G,"[…], time 28 day",1.1
same,ALP,"[…], time 28 day",1017.8 IU/L
same,ALT,"[…], time 28 day",49.4 IU/L
same,AST,"[…], time 28 day",69 IU/L
same,BUN,"[…], time 28 day",18.8 mg/dL
same,CRE,"[…], time 28 day",0.2 mg/dL
same,Ca,"[…], time 28 day",10.8 mg/dL
same,Cl,"[…], time 28 day",104 meq/L
same,DBIL,"[…], time 28 day",0 mg/dL
same,GLC,"[…], time 28 day",185.6 mg/dL
same,IP,"[…], time 28 day",7 mg/dL
same,K,"[…], time 28 day",3.7 meq/L
same,LDH,"[…], time 28 day",158 IU/L
same,Na,"[…], time 28 day",143.2 meq/L
same,PL,"[…], time 28 day",152.4 mg/dL
same,RALB,"[…], time 28 day",3.3 g/dL
same,TBIL,"[…], time 28 day",0.026 mg/dL
same,TC,"[…], time 28 day",79 mg/dL
same,TG,"[…], time 28 day",105.2 mg/dL
same,TP,"[…], time 28 day",6.3 g/dL
same,gamma-GTP,"[…], time 28 day",2.2 IU/L
